Test results taken from BindingDB's records for doi:10.1016/j.chembiol.2007.10.010 (University of Munich, 2007).

Molecular target: T1, 3-phosphoinositide-dependent protein kinase 1 (Homo sapiens, UniProt O15530)
T1 sequence (O15530 whole entry): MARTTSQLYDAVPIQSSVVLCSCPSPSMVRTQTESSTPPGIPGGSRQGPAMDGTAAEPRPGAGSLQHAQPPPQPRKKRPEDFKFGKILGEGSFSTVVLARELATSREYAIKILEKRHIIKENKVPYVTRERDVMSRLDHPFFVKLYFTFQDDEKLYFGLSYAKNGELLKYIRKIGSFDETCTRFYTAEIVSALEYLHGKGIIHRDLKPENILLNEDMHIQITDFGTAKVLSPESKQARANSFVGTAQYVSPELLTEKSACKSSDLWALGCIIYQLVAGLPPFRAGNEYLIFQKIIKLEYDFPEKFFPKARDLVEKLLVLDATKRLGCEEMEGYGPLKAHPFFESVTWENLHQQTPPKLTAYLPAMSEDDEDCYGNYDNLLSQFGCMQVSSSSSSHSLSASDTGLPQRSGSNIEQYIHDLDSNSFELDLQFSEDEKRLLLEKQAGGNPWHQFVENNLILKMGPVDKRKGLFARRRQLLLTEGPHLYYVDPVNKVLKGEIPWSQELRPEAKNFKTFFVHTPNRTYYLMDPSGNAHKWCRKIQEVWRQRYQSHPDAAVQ
Experiment: In Vitro Kinase Assay
Conditions: pH 7.5; 30 °C
From the text: PDK1 protein kinase was expressed in Sf9 insect cells as human recombinant GST-fusion protein by means of the baculovirus expression systems. Protein kinase assay (33PanQinase assay) was used for measuring the kinase activity of PDK1.

IC50 [µM] | Structure (SMILES)
> 100 | O=Nc1c(C2C(=O)Nc3ccccc32)[nH]c2ccccc12 (configuration not stated) [Indirubin-3 -monoxime]
> 100 | O=Nc1c(C2C(=O)Nc3ccc(Br)cc32)[nH]c2ccccc12 (configuration not stated) [5BIO]
